Holding throughout (format): biochemical
Assay [1] concerns the target T1, VGLUT2 (Rattus norvegicus, UniProt Q9JI12).
T1 sequence (Q9JI12 1-582): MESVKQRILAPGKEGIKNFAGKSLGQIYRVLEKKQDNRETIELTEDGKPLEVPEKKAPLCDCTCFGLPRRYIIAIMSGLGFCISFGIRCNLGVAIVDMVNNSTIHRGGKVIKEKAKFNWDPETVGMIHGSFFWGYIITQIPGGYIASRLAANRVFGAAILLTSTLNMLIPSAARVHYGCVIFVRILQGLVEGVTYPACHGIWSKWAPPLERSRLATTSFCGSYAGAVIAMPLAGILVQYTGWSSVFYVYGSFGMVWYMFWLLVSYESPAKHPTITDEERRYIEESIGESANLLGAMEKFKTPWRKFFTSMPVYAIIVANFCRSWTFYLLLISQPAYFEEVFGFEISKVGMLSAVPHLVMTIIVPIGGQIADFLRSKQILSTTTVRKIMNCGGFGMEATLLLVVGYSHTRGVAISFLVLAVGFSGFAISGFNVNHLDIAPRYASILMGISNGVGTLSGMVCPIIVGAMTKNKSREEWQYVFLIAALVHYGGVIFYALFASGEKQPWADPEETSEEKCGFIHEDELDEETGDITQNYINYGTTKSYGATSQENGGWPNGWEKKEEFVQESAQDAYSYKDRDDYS
In words: Val-evoked [3H]L-glutamate uptake by proteoliposomes, […] min. Particulars: 10 mM Cl-, 100 uM L-glutamate, pH 7.0, 27 C.

The target of assay [2] is T1, VGLUT2. Described as above. The following applies: 10 mM Cl-, pH 7.0, 27 C.
The target of assay [3] is T1, VGLUT2. Described as above.
Assay [4] deals with VMAT2 (Rattus norvegicus, UniProt Q01827). As to the kind of experiment: pH-driven [3H]serotonin uptake by proteoliposomes. Particulars: 10 mM Cl-, 10 uM serotonin, pH 7.0 outside; inactive.
VMAT2, sequence (Q01827 whole entry): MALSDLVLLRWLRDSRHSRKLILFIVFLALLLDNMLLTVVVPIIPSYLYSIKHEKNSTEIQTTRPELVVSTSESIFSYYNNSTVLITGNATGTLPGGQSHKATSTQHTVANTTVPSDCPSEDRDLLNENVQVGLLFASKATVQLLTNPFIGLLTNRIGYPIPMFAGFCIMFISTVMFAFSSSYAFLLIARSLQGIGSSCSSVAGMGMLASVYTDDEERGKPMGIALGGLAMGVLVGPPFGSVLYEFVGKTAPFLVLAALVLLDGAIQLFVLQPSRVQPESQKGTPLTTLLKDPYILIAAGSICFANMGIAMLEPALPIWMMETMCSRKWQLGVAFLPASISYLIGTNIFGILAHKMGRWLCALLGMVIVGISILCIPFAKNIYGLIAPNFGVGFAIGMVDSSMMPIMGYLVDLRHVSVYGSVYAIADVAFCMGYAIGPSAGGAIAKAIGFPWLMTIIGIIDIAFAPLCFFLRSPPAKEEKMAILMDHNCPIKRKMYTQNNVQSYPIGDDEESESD
In assay [5] the target is T2, VNUT (Homo sapiens, UniProt Q9BYT1).
T2 sequence (Q9BYT1 1-436): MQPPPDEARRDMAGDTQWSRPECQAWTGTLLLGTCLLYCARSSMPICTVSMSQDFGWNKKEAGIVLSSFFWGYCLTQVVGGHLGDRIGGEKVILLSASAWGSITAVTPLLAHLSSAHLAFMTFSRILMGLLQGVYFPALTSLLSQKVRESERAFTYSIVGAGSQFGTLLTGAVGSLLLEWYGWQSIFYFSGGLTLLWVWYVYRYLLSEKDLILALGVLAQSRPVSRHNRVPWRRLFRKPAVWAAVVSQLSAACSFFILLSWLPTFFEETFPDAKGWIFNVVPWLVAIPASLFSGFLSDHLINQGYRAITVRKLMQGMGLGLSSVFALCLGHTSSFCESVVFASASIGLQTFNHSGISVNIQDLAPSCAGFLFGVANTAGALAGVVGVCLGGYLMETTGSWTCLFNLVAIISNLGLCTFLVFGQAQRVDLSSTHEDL
In words: Val-evoked […]ATP uptake by proteoliposomes. Particulars: 10 mM Cl-, 0.1 mM ATP, pH 7.0, 27 C; prevented by high Cl-; reversible.

The target of assay [6] is T3, VGAT (Rattus norvegicus, UniProt O35458).
T3 sequence (O35458 1-525): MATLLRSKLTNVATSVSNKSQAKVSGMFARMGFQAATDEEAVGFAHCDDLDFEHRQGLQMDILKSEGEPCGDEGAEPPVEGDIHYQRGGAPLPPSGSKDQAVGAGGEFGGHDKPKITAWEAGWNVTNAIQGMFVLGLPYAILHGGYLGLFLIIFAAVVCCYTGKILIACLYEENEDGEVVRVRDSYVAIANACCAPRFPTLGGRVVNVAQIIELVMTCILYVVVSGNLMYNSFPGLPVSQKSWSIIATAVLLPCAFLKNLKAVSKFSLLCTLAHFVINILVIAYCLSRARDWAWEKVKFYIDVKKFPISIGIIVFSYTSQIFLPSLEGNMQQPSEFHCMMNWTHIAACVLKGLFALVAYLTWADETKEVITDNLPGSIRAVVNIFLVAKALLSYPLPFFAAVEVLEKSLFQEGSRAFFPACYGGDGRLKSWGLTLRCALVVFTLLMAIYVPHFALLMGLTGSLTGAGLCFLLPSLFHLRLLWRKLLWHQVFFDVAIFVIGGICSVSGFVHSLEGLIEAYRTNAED
In words: GABA uptake by proteoliposomes.

The structures appear in SMILES notation.

As for `C[C@@H](O)CC(=O)O` [3-hydroxybutyrate], the dose-dependent inhibition entry in assay [1] was “ketone bodies (acetoacetate and 3-hydroxybutyrate) inhibited glutamate transport”. Regarding `Cc1cc(-c2ccc(/N=N/c3ccc4c(S(=O)(=O)O)cc(S(=O)(=O)O)c(N)c4c3O)c(C)c2)ccc1/N=N/c1ccc2c(S(=O)(=O)O)cc(S(=O)(=O)O)c(N)c2c1O` [Evans blue], in assay [2], the “Val-evoked [3H]L-glutamate uptake by proteoliposomes, 1 min” value was “sensitivity to Evans blue and diisothiocyanostilbene disulfonic acid (DIDS)”.

Broadly, the IC50 is the concentration needed to halve the response being measured. A lower IC50 goes with greater potency. As for `CC(=O)CC(=O)O` [acetoacetate], the IC50 in assay [3] was 200 µM; in assay [6], greater than 5000 µM. For the same compound, the “pH-driven [3H]serotonin uptake by proteoliposomes” value in assay [4] was “partially purified VMAT2 was found to be entirely independent of Cl^− and acetoacetate”. Further, in assay [5], the dose-dependent inhibition entry is given as “uptake of ATP by VNUT was similarly inhibited by acetoacetate”.

Turning to `CC(=O)C(=O)O` [pyruvate], the dose-dependent inhibition result in assay [1] is “pyruvate, an intermediate in the glycolytic pathway also inhibited glutamate transport”.

The record behind these values is publication PMC2978156 (Neuron, 2010).
